Test results published in US20220257550A1, “REDUCING THE VIRAL ACTIVITY OF ELAFIBRANOR WITH RIBOFLAVIN OR DHA” (priority 2019, published 2022).

Test system: Phage T4
Assay: Phage T4 titer in liquid culture of E. coli followed by plaque assay on agar plates (PFU)
Format: cell-based, bacteriophage T4 / E. coli 613
Details: compounds 0.02 mg/ml (each), vs untreated control, FIG. 1
Procedure: (§1) The number of phage particles (PFU) is given. Experiment were done in triplicate.
as §1
Nutritional Products Ltd (Kaiseraugst, Switzerland). All stock solutions were in 20 mg/ml DMSO. All compounds were used at a final concentration of 0.02 mg/ml.
E. coli was grown in liquid LB (lysogeny broth) medium. […] The number of phage particles (PFU) was determined by plating on agar.

Cc1cc2nc3c(=O)[nH]c(=O)nc-3n(C[C@H](O)[C@H](O)[C@H](O)CO)c2cc1C [Riboflavin]
phage T4 PFU (number of phage particles) (MOI of 0.01, 3 hours at 30° C.): decreased | phage T4 PFU (number of phage particles) (MOI of 100/1): decreased

CSc1ccc(C(=O)/C=C/c2cc(C)c(OC(C)(C)C(=O)O)c(C)c2)cc1 [elafibranor, Elafibranor]
phage T4 PFU (number of phage particles) (MOI of 0.01, 3 hours at 30° C.): significantly increased | phage T4 PFU (number of phage particles) (MOI of 100/1): significantly increased
